Reference: patent US9446061B2, “Composition containing antibiotics and lysophosphatidylcholine for boosting immunity or treatment of bacterial infections” (priority 2011, dated 2016)

How the values were obtained:
[1] = tested on: bone marrow polychromatic erythrocytes; test: Bone marrow MNPCE and PCE/(PCE+NCE) in CPA-treated mice; settings: LPC 1, DW286 0.5, Mix 0.75 mg/kg
Protocol: (§3) In Intact control animals, equal volume of saline was only dosed instead of CPA with same methods.
In brief, bone marrow cells were collected from aforementioned femur in 3 ml of inactivated fetal bovine serum (GIBCO BRL, USA), centrifuged, and smeared on slide. Preparations were dried, and fixed by submerging in absolute methanol (for 10˜20 min). Fixed slides were stained as follow:
Slides were randomly coded and examined under×1000 magnification by two different experts. Small round or oval shaped bodies, size of which ranging about ⅕ to 1/20 of diameter of PCE, were counted as micronuclei. Attention was given to discriminate micronuclei from artifacts. Results were expressed as the number of MNPCEs in 1000 PCEs. Mean number of MNPCE±S.D. was calculated for each treatment group.
(§4) Appropriate doses of candidate materials were dissolved in 5% human serum albumin, and subcutaneously dosed at 10 ml/kg (of body weight), 4 times 12-hr intervals from 6 hrs after CLP or 24 hrs after last CPA-dosing, respectively. In the INTACT, CPA, or CPA-CLP control groups, an equal volume of 5% human serum albumin was dosed by the same procedure.

[2] = tested on: CPA-CLP sepsis mouse model; test: Combination effects of LPC and antibiotics (colistin, tobramycin, fusidin) in CPA-CLP sepsis mouse model (SEP013); single i.v. 6 hrs after CLP; type: in vivo, ICR mice; settings: mpk: LPC 5, DW286aa 5, Colistin 5, Tobra 4, Fusidin 80, LPC + Colistin 5 + 5, LPC + Tobra 5 + 4, LPC + Fusidin 5 + 80
Source text: (§1) CPA is well known as an immunosuppressive agent. […] Then, the abdomen was closed following the general procedure.
(§2) Then, body weight and mortality changes were observed.

[3] = Body weight of CPA-CLP mice (Example 9); settings: LPC 1, DW286 0.5, Mix 0.75 mg/kg
Protocol: (§5) In CPA-CLP model, body weight and mortalities were measured once a day for 5 days with automatic electronic balances (Sartorius Co., Ltd., USA), once a day for 2 days in CPA-treated model. All animals were overnight fasted at CPA dosing, CLP or initial dosing to reduce differences from feeding. In addition, body weight gains were calculated as follows:
CPA-CLP Model: Body weight at sacrifice—at CLP(5 days)
Then, mortalities, changes in thymus and spleen weights, changes in white blood cell (WBC) number, and changes in thymic and splenic CD3+, CD4+, CD8+, and TNF-α+ cell numbers, were evaluated together with changes in bone marrow polychromatic erythrocytes contain micronuclei (MNPCE) number.
as §4

[4] = Body weight of CPA-treated mice (Example 9); s.c. 4 times 12-hr intervals from 24 hrs after last CPA-dosing; settings: LPC 1, DW286 0.5, Mix 0.75 mg/kg
Protocol: In the INTACT control group, an equal volume of physiological saline was dosed instead of CPA by the same method.
as §3, §5
CPA-Treat Model: Body weight at sacrifice—at initial dosing (2 days)
To find suitable dosing regime of LPC and DW286AA combination during the development of new therapeutic agents against sepsis, evaluation was conducted by using CPA-CLP— and CPA-induced immunosuppressive mice. […] Then, mortalities, changes in thymus and spleen weights, changes in white blood cell (WBC) number, and changes in thymic and splenic CD3+, CD4+, CD8+, and TNF-α+ cell numbers, were evaluated together with changes in bone marrow polychromatic erythrocytes contain micronuclei (MNPCE) number.
as §4

[5] = tested on: CPA-CLP sepsis mouse model; test: Effects of LPC, LPC isomers, Xigris and DW286aa on mortalities/survivabilities in CPA-CLP sepsis mouse model (SEP009); single i.v. 6 hrs after CLP; type: in vivo
Protocol: as §1, §2
In the Sham and CLP control groups, 10 ml/kg of only sterile physiological saline was single intravenously dosed.

[6] = tested on: blood WBC; test: Blood WBC numbers and differential counts in CPA-treated mice; type: in vivo, ICR mice; settings: LPC 1, DW286 0.5, Mix 0.75 mg/kg
Protocol: Blood were collected at sacrifice of CPA-treated model from vena cava and total blood leukocyte numbers were calculated using counting chamber, diluting pipette and Türk solution as dilution solution. All numbers were calculated as ×10^3/mm^3. In addition, cell numbers of lymphocytes, eosinophils, neutrophils, monocytes and basophils were calculated among 100 total leukocytes in smear blood samples stained with Giemsa.

[7] = At First CPA dosing (overnight fasted)
[8] = LPC, LPC18:0, LPC18:1, LPA 5 mpk, Xigris 0.4 mpk, DW286aa 10 mpk, 1st CPA treat
[9] = LPC, LPC18:0, LPC18:1, LPA 5 mpk, Xigris 0.4 mpk, DW286aa 10 mpk, 2nd CPA treat
[10] = LPC, LPC18:0, LPC18:1, LPA 5 mpk, Xigris 0.4 mpk, DW286aa 10 mpk, At CLP (day 0)
[11] = LPC, LPC18:0, LPC18:1, LPA 5 mpk, Xigris 0.4 mpk, DW286aa 10 mpk, Day 1
[12] = LPC, LPC18:0, LPC18:1, LPA 5 mpk, Xigris 0.4 mpk, DW286aa 10 mpk, Day 2
[13] = LPC, LPC18:0, LPC18:1, LPA 5 mpk, Xigris 0.4 mpk, DW286aa 10 mpk, Day 3
[14] = LPC, LPC18:0, LPC18:1, LPA 5 mpk, Xigris 0.4 mpk, DW286aa 10 mpk, Day 4
[15] = LPC, LPC18:0, LPC18:1, LPA 5 mpk, Xigris 0.4 mpk, DW286aa 10 mpk, Day 5
[16] = LPC, LPC18:0, LPC18:1, LPA 5 mpk, Xigris 0.4 mpk, DW286aa 10 mpk, Day 6
[17] = LPC, LPC18:0, LPC18:1, LPA 5 mpk, Xigris 0.4 mpk, DW286aa 10 mpk, Day 7
[18] = LPC, LPC18:0, LPC18:1, LPA 5 mpk, Xigris 0.4 mpk, DW286aa 10 mpk, Day 8
[19] = LPC, LPC18:0, LPC18:1, LPA 5 mpk, Xigris 0.4 mpk, DW286aa 10 mpk, Day 9
[20] = LPC, LPC18:0, LPC18:1, LPA 5 mpk, Xigris 0.4 mpk, DW286aa 10 mpk, Day 10
[21] = LPC, LPC18:0, LPC18:1, LPA 5 mpk, Xigris 0.4 mpk, DW286aa 10 mpk, Total
[22] = Xigris 2 mpk, DW286aa 20 mpk, 1st CPA treat
[23] = Xigris 2 mpk, DW286aa 20 mpk, 2nd CPA treat
[24] = Xigris 2 mpk, DW286aa 20 mpk, At CLP (day 0)
[25] = Xigris 2 mpk, DW286aa 20 mpk, Day 1
[26] = Xigris 2 mpk, DW286aa 20 mpk, Day 2
[27] = Xigris 2 mpk, DW286aa 20 mpk, Day 3
[28] = Xigris 2 mpk, DW286aa 20 mpk, Day 4
[29] = Xigris 2 mpk, DW286aa 20 mpk, Day 5
[30] = Xigris 2 mpk, DW286aa 20 mpk, Day 6
[31] = Xigris 2 mpk, DW286aa 20 mpk, Day 7
[32] = Xigris 2 mpk, DW286aa 20 mpk, Day 8
[33] = Xigris 2 mpk, DW286aa 20 mpk, Day 9
[34] = Xigris 2 mpk, DW286aa 20 mpk, Day 10
[35] = Xigris 2 mpk, DW286aa 20 mpk, Total

CON=C1CN(c2nc3c(cc2F)c(=O)c(C(=O)O)cn3C2CC2)CC1(C)CN.Cl (stereo not shown) [DW286aa, 7-[3-(aminomethyl)-4-(methoxyimino)-3-methyltetrahydro-1H-1-pyrrolyl]-1-cyclopropyl-6-fluoro-4-oxo-1,4-dihydro[1,8]naphthyridine-3-carboxylic acid hydrochloric acid salt]
MNPCE numbers, change compared to CPA control [1]: −10.85% | PCE/(PCE+NCE), change compared to CPA control [1]: −14.79% | NCE ([1]; among 500 erythrocytes): 379.67 ± 17.07 | PCE ([1]; among 500 erythrocytes): 120.33 ± 17.07 | PCE/(NCE + PCE) ([1]; among 500 erythrocytes): 0.24 ± 0.03 | % MNPCE ([1]; among 1000 PCEs): 2.56 ± 0.57 % | Mortalities ([2]; 1st CPA treat): 0 | Survivalities ([2]; 1st CPA treat): 100% | Mortalities ([2]; 2nd CPA treat): 0 | Survivalities ([2]; 2nd CPA treat): 100% | Mortalities ([2]; At CLP (day 0)): 0 | Survivalities ([2]; At CLP (day 0)): 100% | Mortalities ([2]; Day 1): 0 | Survivalities ([2]; Day 1): 100% | Mortalities ([2]; Day 2): 0 | Survivalities ([2]; Day 2): 100% | Mortalities ([2]; Day 3): 2 | Survivalities ([2]; Day 3): 80% | Mortalities ([2]; Total): 2 | Survivalities ([2]; Total): 80% | Body weight ([3]; 1 day after CLP): 31.50 ± 1.34 g | Body weight ([3]; 2 days after CLP): 29.88 ± 0.98 g | Body weight ([3]; 3 days after CLP): 30.97 ± 0.99 g | Body weight ([3]; At CLP (overnight fasted)): 33.77 ± 1.42 g | Body weight [3, 7]: 34.32 ± 1.32 g | Body weight ([4]; 1 day after second CPA-dosing): 37.46 ± 1.96 g | Body weight ([4]; 2 days after second CPA-dosing): 38.61 ± 1.95 g | Body weight ([4]; At Dosing (overnight fasted)): 33.02 ± 1.95 g | Body weight [4, 7]: 36.84 ± 1.83 g | Body weight gains during 2 days after dosing [4]: 5.59 ± 1.03 g | body weight (gains) change compared to the CPA control group [4]: −1.37% | Mortalities [5, 8]: 0 | survivabilities [5, 8]: 100% | Mortalities [5, 9]: 0 | survivabilities [5, 9]: 100% | Mortalities [5, 10]: 0 | survivabilities [5, 10]: 100% | Mortalities [5, 11]: 1 | survivabilities [5, 11]: 90% | Mortalities [5, 12]: 2 | survivabilities [5, 12]: 70% | Mortalities [5, 13]: 0 | survivabilities [5, 13]: 70% | Mortalities [5, 14]: 0 | survivabilities [5, 14]: 70% | Mortalities [5, 15]: 0 | survivabilities [5, 15]: 70% | Mortalities [5, 16]: 0 | survivabilities [5, 16]: 70% | Mortalities [5, 17]: 2 | survivabilities [5, 17]: 50% | Mortalities [5, 18]: 1 | survivabilities [5, 18]: 40% | Mortalities [5, 19]: 1 | survivabilities [5, 19]: 30% | Mortalities [5, 20]: 0 | survivabilities [5, 20]: 30% | Mortalities [5, 21]: 7 | survivabilities [5, 21]: 30% | Mortalities [5, 22]: 0 | survivabilities [5, 22]: 100% | Mortalities [5, 23]: 0 | survivabilities [5, 23]: 100% | Mortalities [5, 24]: 0 | survivabilities [5, 24]: 100% | Mortalities [5, 25]: 0 | survivabilities [5, 25]: 100% | Mortalities [5, 26]: 1 | survivabilities [5, 26]: 90% | Mortalities [5, 27]: 1 | survivabilities [5, 27]: 80% | Mortalities [5, 28]: 0 | survivabilities [5, 28]: 80% | Mortalities [5, 29]: 0 | survivabilities [5, 29]: 80% | Mortalities [5, 30]: 2 | survivabilities [5, 30]: 60% | Mortalities [5, 31]: 1 | survivabilities [5, 31]: 50% | Mortalities [5, 32]: 0 | survivabilities [5, 32]: 50% | Mortalities [5, 33]: 1 | survivabilities [5, 33]: 40% | Mortalities [5, 34]: 1 | survivabilities [5, 34]: 30% | Mortalities [5, 35]: 7 | survivabilities [5, 35]: 30% | blood total WBC numbers, change compared to CPA control [6]: −11.31% | ratio of lymphocytes, change compared to CPA control [6]: −23.56% | ratio of monocytes, change compared to CPA control [6]: 13.43% | ratio of neutrophils, change compared to CPA control [6]: −1.09% | Total WBC ([6]; blood at sacrifice): 0.41 ± 0.19 ×10^3/mm^3 | WBC differentials: Basophils ([6]; blood at sacrifice): 0.89 ± 0.78% | WBC differentials: Eosinophils ([6]; blood at sacrifice): 0.22 ± 0.44% | WBC differentials: Lymphocytes ([6]; blood at sacrifice): 14.56 ± 9.75 % | WBC differentials: Monocytes ([6]; blood at sacrifice): 42.78 ± 17.33 % | WBC differentials: Neutrophils ([6]; blood at sacrifice): 41.56 ± 10.64 %
